From PubChem BioAssay (NCI) come the findings set out here.

The structures appear in SMILES notation.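 Grown in 96-well plates, cells were treated for 48 hours with each compound at five concentrations. Insufficient inhibition: endpoint recorded as highest concentration tested. TGI marks complete inhibition of growth.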

Assay in all cases: inhibition of tumour cell growth, NCI panel, 48 h
Assay [1] deals with ACHN renal.
The subject of assay [2] is SF-295 CNS.
Assay [3] concerns SNB-19 CNS.
Assay [4] deals with TK-10 renal.
For assay [5], the system named is T-47D breast.
Assay [6] concerns SR leukemia.
Assay [7] concerns 786-0 renal.
Assay [8] concerns UACC-257 melanoma.
Assay [9] deals with SN12C renal.
Assay [10] concerns SNB-75 CNS.
Assay [11] relates to SK-MEL-5 melanoma.

Take `COc1cc2c(/C=C3/C(=O)Nc4ccccc43)c(Cl)n(Cc3ccc(Cl)cc3)c2cc1C`: the TGI came to 1.27 µM in assay [1]; 3.06 µM in assay [2]; 15.8 µM in [3]; 7.67 µM in assay [4]; 24.2 µM in assay [5]; 0.43 µM in assay [6]. The TGI in assay [7] was 1.4 µM; in assay [8], 8.43 µM; in [9], 1.06 µM; in [10] it was 0.898 µM; in assay [11], 1.62 µM.

`O=C1/C(=C/c2ccccc2)Oc2cc(O)ccc21`: the TGI in assay [1], in assay [2], in assay [3], in assay [4], in [5] and in assay [6] was greater than 100 µM throughout. Moreover, the TGI in [7], in assay [8], in [9], in [10] and in assay [11] was greater than 100 µM in each case.

In the case of `O=CCCCCCOCc1ccccc1`, the TGI in assay [1] is greater than 100 µM; in assay [2], greater than 60.4 µM; in [3], greater than 100 µM; in assay [4], greater than 100 µM; in assay [5], greater than 100 µM; in assay [6], greater than 100 µM. Also, the TGI in assay [7] is 68.1 µM; in assay [8] it was greater than 100 µM; in [9], 32.6 µM; in assay [10], greater than 100 µM; in assay [11], greater than 54.4 µM.

Turning to `CC(C)(CO[C@H]1C[C@H]2CC[C@@]1(C)C2(C)C)[N+](=O)[O-]`, the TGI was greater than 100 µM in assay [1]; 33.9 µM in assay [2]; 37.2 µM in assay [3]; 34 µM in assay [4]; 45.6 µM in [5]; 42.3 µM in assay [6]. The TGI is 27.9 µM in assay [7]; 36.9 µM in [8]; greater than 100 µM in assay [9]; 45.1 µM in assay [10]; 31.6 µM in assay [11].

As for `COC(=N)C1(C#N)NC(c2ccsc2)C(C#N)(C#N)NC1c1ccsc1` (stereo not given), the TGI in assay [1], in assay [2], in assay [3], in assay [4], in assay [5] and in assay [6] was greater than 100 µM each time. The TGI in assay [7], in assay [8], in assay [9], in [10] and in [11] was greater than 100 µM each time.

For `NC(=O)[C@H](Cc1ccc(O)cc1)Nc1c(O)c2c(c(O)c1Cl)C(=O)C=CC2=O`, the TGI in assay [1] was 6.61 µM; in [2] it was greater than 10 µM; in assay [3], greater than 10 µM; in [4] it was greater than 6.51 µM; in [5] it was 5.27 µM; in assay [6], 5.26 µM. For the same compound, the TGI in assay [7] is 4.62 µM; in assay [8], greater than 10 µM; in assay [9], greater than 6.94 µM; in assay [10], greater than 10 µM; in [11], 3.04 µM.

As to `Cc1c(C)c2c(c(N)c1C#N)C(=O)N(N)C2=O`, the TGI in assay [1], in assay [2], in assay [3], in [4], in [5] and in assay [6] was greater than 100 µM in each case. For the same compound, the TGI in assay [7], in [8], in assay [9], in assay [10] and in assay [11] was greater than 100 µM in each case.

In the case of `N#Cc1nc(CCc2nc(C#N)c(N)o2)oc1N`, the TGI in assay [1], in assay [2], in assay [3], in [4], in assay [5] and in assay [6] was greater than 10 µM in each case. The TGI in assay [7], in assay [8], in [9], in [10] and in assay [11] was greater than 10 µM throughout.

As to `C=C1c2nc3ccccc3n2C=C(c2ccc(C)cc2)N1c1ccc(OC)cc1`, the TGI is greater than 100 µM in assay [1]; greater than 100 µM in [2]; greater than 100 µM in [3]; greater than 100 µM in assay [4]; greater than 100 µM in assay [5]; 19.8 µM in assay [6]. The TGI in [7], in assay [8], in [9], in assay [10] and in assay [11] was greater than 100 µM each time.

Turning to `Cn1c(=O)c2c(nc3[nH]c(=O)c(Br)cn32)n(C)c1=O`, the TGI in assay [1], in assay [2], in assay [3], in [4], in assay [5] and in assay [6] was greater than 100 µM each time. Besides, the TGI in assay [7], in assay [8], in assay [9], in assay [10] and in assay [11] was greater than 100 µM each time.
